Source: patent publication US6492416B1, “4,5-diaryl-3(2H)-furanone derivatives as cyclooxygenase-2 inhibitors” (Pacific Corporation, priority 1999, dated 2002)
Converted amounts (≈) assume the structure as drawn.

Experiments:
male SD rats = test: Carrageenan-induced thermal hyperalgesia assay; format: in vivo, rat; conditions: 3 hours
Experimental: Male SD rats weighing 170˜220 g were fasted but with free access to water for at leat 16 hours prior to testing. The rats were administered with a compound of this invention suspended in 20 ml 0.5% methylcellulose/0.025% Tween-20, or with vehicle only. Then the rats were given […] of 1% carrageenan in saline or […] saline only into the plantar surface of the left hindpaw by injection. Three hours later, the nociceptive responses to thermal stimuli were assessed as follows: Rats, which were placed in a transparent plastic chamber with a glass floor, were allowed to acclimate to their environment for 10 minutes prior to the testing. The withdrawal latency period in seconds was determined for the control and the compound treated group, and a percent inhibition in the withdrawal latency was calculated to estimate the analgesic effect of the compound [Pain 32, 77 (1988)]. In this study 6 animals were used for each group.

ICR mice = test: Acetic acid-induced writhing test; format: in vivo, mouse; conditions: oral gavage
Experimental: ICR mice weighing 18˜22 g were maintained in a controlled lighting environment (12 hours on/12 hours off) and fasted overnight prior analgesic testing. Mice were administered with a compound of this invention dissolved in 10:10:80 ethanol/Tween 80/saline or vehicle only by oral gavage. The administered vehicle volume was controlled to be 10 ml/kg body weight. One hour later, the animals were treated with 0.2 ml of 1.2% acetic acid by peritoneal injection. 6 minutes later, the number of abdominal constrictions was counted for a 6 minutes period. The antinociceptive activity was expressed as the reduction in the number of abdominal constrictions, compared with that of the placebo group [J. Med. Chem. 39, 4942 (1996)]. ED50 of the mouse writhing test denotes a dose level at which the number of abdominal constrictions is half that of the placebo group. Ten animals per group were used for this study.

COX-1 = target: T1, COX-1 (Mus musculus, UniProt P22437); test: Evaluation of COX-1 activity: PGE2 formation in mouse peritoneal macrophages without aspirin and LPS treatment; format: cell-based
T1 sequence (P22437 27-602): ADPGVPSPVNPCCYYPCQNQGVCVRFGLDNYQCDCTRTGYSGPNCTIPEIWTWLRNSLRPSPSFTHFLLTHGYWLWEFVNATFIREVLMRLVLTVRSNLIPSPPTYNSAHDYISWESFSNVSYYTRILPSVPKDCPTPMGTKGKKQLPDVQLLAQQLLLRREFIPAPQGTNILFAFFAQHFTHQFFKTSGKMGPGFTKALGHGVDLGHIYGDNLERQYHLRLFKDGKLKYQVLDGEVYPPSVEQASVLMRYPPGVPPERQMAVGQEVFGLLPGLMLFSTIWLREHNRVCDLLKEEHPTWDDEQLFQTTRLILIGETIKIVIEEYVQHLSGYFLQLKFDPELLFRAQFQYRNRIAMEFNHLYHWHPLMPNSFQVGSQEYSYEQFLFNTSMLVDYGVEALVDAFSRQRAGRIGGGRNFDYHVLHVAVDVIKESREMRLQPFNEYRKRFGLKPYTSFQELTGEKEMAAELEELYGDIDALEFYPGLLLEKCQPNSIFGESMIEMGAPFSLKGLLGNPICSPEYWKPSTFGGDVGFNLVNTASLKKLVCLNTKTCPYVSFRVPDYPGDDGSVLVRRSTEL
Method in brief: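 Peritoneal macrophages from C57BL/6 mice, without aspirin or LPS treatment, were plated at 1×10^6 cells/ml and fixed 2 h at 37 °C. Cells were preincubated 10 min, then given 10 μM arachidonic acid plus compound for 10 min; PGE2 was measured by RIA or EIA. IC50 came from 4–5 concentrations.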

Row | Structure (SMILES) | IC50, μg/ml COX-1 (COX-1) | melting point | % Inhibition at 1.0 mg/kg body weight (rat hyperalgesia) (male SD rats) | ED50 (mouse writhing) (ICR mice)
1 | CC1(C)OC(c2ccc(S(C)(=O)=O)cc2)=C(c2cc(F)cc(F)c2)C1=O [Example 11, 4-(3,5-Difluorophenyl)-2,2-dimethyl-5-{4-(methylsulfonyl)phenyl}-3(2H)-furanone] | 20 µg/mL (≈ 52.9 µM) | 141 to 142 °C |  | 
2 | CC1(C)OC(c2ccc(S(N)(=O)=O)cc2)=C(c2cccc(Cl)c2)C1=O [Example 126] | 3.82 µg/mL (≈ 10.1 µM) | 194 to 195 °C |  | 
3 | CC1(C)OC(c2ccc(S(C)(=O)=O)cc2)=C(c2cccc(F)c2)C1=O [Example 4, 2,2-Dimethyl-4-(3-fluorophenyl)-5-{4-(methylsulfonyl)phenyl}-3(2H)-furanone] | 5 µg/mL (≈ 13.9 µM) | 178 to 179 °C | 27% | 8.3 mg/kg body weight

Further lines, with some results ahead:

Row | IC50, μg/ml COX-1 (COX-1) | melting point | Structure (SMILES) | % Inhibition at 1.0 mg/kg body weight (rat hyperalgesia) (male SD rats) | ED50 (mouse writhing) (ICR mice)
4 | 1.02 µg/mL (≈ 2.82 µM) |  | CC1(C)OC(c2ccc(S(N)(=O)=O)cc2)=C(c2cccc(F)c2)C1=O [Example 129, 5-{4-(aminosulfonyl)phenyl}-2,2-dimethyl-4-(3-fluorophenyl)-3(2H)-furanone] | 92% | 12.3 mg/kg body weight
5 | 3 µg/mL (≈ 7.91 µM) | 95 to 97 °C | CC1(C)OC(c2ccc(S(N)(=O)=O)cc2F)=C(c2ccc(F)cc2)C1=O [Example 334] |  | 
